We go through nine compounds from US20240300940A1, “Phenothiazinyl Compounds and Uses” (Prosetta Biosciences, Inc., priority 2023, published 2024).

Experiment [1] relates to NL4-3 Rluc virus. Description: microbe, parasite or virus in culture. In kind it is cell-based, HIV. The following applies: MT-2 cells, MOI 0.02, 96 hours.
The subject of experiment [2] is Hennes-20 cells. Nature of the experiment: Hennes-20 oncology screen. In kind it is cell-based. The following applies: 72 h, alamar Blue. As to the method: To screen compounds for oncology activity Hennes-20 cells were plated at low (500 cells/well) versus high (15,000 cells/well) densities and treated with DMSO (vehicle) or dose-titration of compounds. The rationale for this screen is that an intrinsically toxic compound should kill cells regardless of density, including in Hennes-20 cells. However, a compound that selectively triggers the arrest of proliferation will inhibit cell growth when plated at a low density will appear cytotoxic due to inhibition of cell growth when plated at a low density but will appear non-toxic to cells plated at a high density where the cells are approaching confluence and the readout detected by a cell viability assay is already close to the maximum.
To conduct the Hennes-20 screen, two 96 well plates were seeded with Hennes 20 cells in parallel where one was plated at a density of 500 cells/well and the other was plated at a density of 15,000 cells/well. 90 uL of minimum essential media was added to each well and plates were placed in a 37 degrees Celsius incubator for 24 hours. The next day, 10 ul of media containing dilutions of compound in DMSO were added to each plate. Six wells on each plate received 10 ul of media containing only DMSO. Each well was gently mixed 5 times with a 100 ul pipette. Plates were incubated at 37 degrees Celsius for 72 hours and then 10 uL of alamar Blue was added to each well. Wells were mixed 5 times then incubated at 37 degrees Celsius for […]. Plates were then read at 530/590.
The rationale for the screen is as follows: Hennes-20 cells lack endogenous apoptosis. Cells plated at low density will proliferate and approach confluence in 72 hrs. A drug that arrests proliferation may have its proliferation blocking effect masked by the triggering of endogenous apoptosis. However, in the Hennes line, lacking endogenous apoptosis, such an arrest is manifest as a dose-dependent maintenance at low cell density. Since the high-density cells are plated close to confluence, the difference between Alamar Blue cell survival readings after 72 hrs reflects the ability of the drug to block proliferation in the low density-plated cells. In the high density-plated cells any diminution of Alamar Blue readout vs vehicle control is due to intrinsic toxicity, not proliferation arrest, since cells were already at confluence. Thus, a compound that appears toxic (low Alamar Blue readings after 72 hrs) on the low-density plate, but which appears non-toxic (high Alamar Blue readings after 72 hrs) on the high-density plate, must be arresting proliferation, since intrinsic compound toxicity should be observed at both low and high cell densities, not selectively on the low-density plate.
(Alamar Blue is a resazurin reagent that responds to reducing activity.)

For experiment [3], the system named is E. coli ATCC25922. Description: MIC assay, serial dilution. The following applies: for MIC: Escherichia coli, ATCC25922, read-out: Anti-bacterial Activity (E. coli MIC (uM)), E. coli, Table 5.
For experiment [4], the system named is VACV-LUC virus. Description: microbe, parasite or virus in culture. It counts as cell-based. The following applies: Orthopoxvirus vaccinia, HeLa, 2 h.
Experiment [5] has as its system RABV ERA strain. Description: organism not typed. It counts as cell-based.
Setting [6] is: Human immunodeficiency virus 1, NL43, MT2, 96 h.

Molecules are shown by their SMILES.

As to `CCc1cc(N(C)C)cc2[s+]c3cc(N4CCCC4)cc(CC)c3nc12` [Compound 36], the figures for the EC50 in experiment [1] (setting [6]), in experiment [2] and in experiment [4] were 7.6 nM, under 500 nM and under 1670 nM, respectively. Also, the minimal inhibitory concentration (MIC) (in general, the least concentration at which growth counts as inhibited) in experiment [3] was 1.6 µM.
In the case of `CCc1cc(N2CCCC2)cc2[s+]c3cc(N4CCCC4)cc(C)c3nc12` [Compound 45], the EC50 (usually the midpoint of the concentration-response curve) is 3.1 nM in experiment [1] (setting [6]), under 2500 nM in experiment [2] and under 1670 nM in experiment [4]. Besides, the minimum inhibitory concentration (MIC) in experiment [3] came to 0.8 µM.
For the compound `CCc1cc(N2CCCC2)cc2[s+]c3cc(N4CCCC4)cc(C(C)C)c3nc12` [Compound 46], the figures for the 50% effective concentration (EC50) in experiment [1] (setting [6]), in experiment [2] and in experiment [5] were 3 nM, under 500 nM and under 5 nM, respectively. In addition, the “Anti-bacterial Activity (E. coli MIC (uM))” value in experiment [3] (E. coli, Table 5) came out at 3.1 µM.
For `CN(C)c1ccc2nc3c(C(C)(C)C)cc(N(C)C)cc3[s+]c2c1` [Compound 66], the results for the 50% effective concentration (EC50) in experiment [2] and in experiment [4] were under 500 nM and 1670 nM, respectively.
With `c1cc2nc3ccc(N4CCCC4)cc3[s+]c2cc1N1CCCC1` [Compound 68], the concentration giving a half-maximal response (EC50) is 42 nM in experiment [1] (setting [6]), under 500 nM in experiment [2] and under 560 nM in experiment [4]. The minimum inhibitory concentration (MIC) in experiment [3] stood at 6.3 µM.
`CCc1cc(NC(C)C)cc2[s+]c3cc(N4CCCN(C(=O)OC(C)(C)C)CC4)cc(CC)c3nc12` [Compound 69]: the EC50 was under 500 nM in experiment [2] and under 5000 nM in experiment [4].
As to `CCc1cc(N2CCCC2)cc2[s+]c3cc(N(C)C)cc(C(C)C)c3nc12` [Compound 73], the EC50 was 1.8 nM in experiment [1] (setting [6]), 500 nM in experiment [2], 1670 nM in experiment [4] and under 500 nM in experiment [5]. Also, the MIC in experiment [3] stood at 100 µM.
Take `CCc1cc(N2CCCCCC2)cc2[s+]c3cc(N(C)C4CCNCC4)cc(CC)c3nc12` [Compound 77]: the concentration giving a half-maximal response (EC50) in experiment [2] was under 2500 nM; in experiment [4], 1670 nM. Also, the MIC in experiment [3] stood at 3.1 µM.
For the compound `CCc1cc(N(C)C)cc2[s+]c3cc(N4CCCNCC4)cc(CC)c3nc12` [Compound 83], the concentration giving a half-maximal response (EC50) in experiment [1] was 270 nM; in experiment [2] it was under 12500 nM; in experiment [4], 1670 nM; in experiment [5] it was under 500 nM. For the same compound, the MIC in experiment [3] was 100 µM.
